Experimental data from article PMC10176470, “Engaging a Non-catalytic Cysteine Residue Drives Potent and Selective Inhibition of Caspase-6” (Journal of the American Chemical Society, 2023).

Columns and labels:
Type in all cases: cell-based
[1] = target: proteins of HEK293T cells transiently overexpressing caspase-6 (Homo sapiens, UniProt P23396); conditions: exp_ref Probe; protein RPS3 (P23396); analysis C6
[2] = target: proteins of HEK293T cells transiently overexpressing caspase-6 (Homo sapiens, UniProt Q9Y5M8); conditions: exp_ref Probe; protein SRPRB (Q9Y5M8); analysis C6
[3] = target: proteins of HEK293T cells transiently overexpressing caspase-6 (Homo sapiens, UniProt P19013); conditions: Probe; protein KRT4 P19013
[4] = target: proteins of HEK293T cells transiently overexpressing caspase-6 (Homo sapiens, UniProt Q9UQE7); conditions: protein SMC3 (Q9UQE7), analysis C6
[5] = target: proteins of HEK293T cells transiently overexpressing caspase-6 (Homo sapiens, UniProt Q9Y2X3); conditions: protein NOP58 (Q9Y2X3); exp_ref Probe; analysis C6
[6] = target: T1, proteins of HEK293T cells transiently overexpressing caspase-6 (Homo sapiens, UniProt P14324); conditions: Probe; protein FDPS P14324
T1 sequence (P14324 1-419): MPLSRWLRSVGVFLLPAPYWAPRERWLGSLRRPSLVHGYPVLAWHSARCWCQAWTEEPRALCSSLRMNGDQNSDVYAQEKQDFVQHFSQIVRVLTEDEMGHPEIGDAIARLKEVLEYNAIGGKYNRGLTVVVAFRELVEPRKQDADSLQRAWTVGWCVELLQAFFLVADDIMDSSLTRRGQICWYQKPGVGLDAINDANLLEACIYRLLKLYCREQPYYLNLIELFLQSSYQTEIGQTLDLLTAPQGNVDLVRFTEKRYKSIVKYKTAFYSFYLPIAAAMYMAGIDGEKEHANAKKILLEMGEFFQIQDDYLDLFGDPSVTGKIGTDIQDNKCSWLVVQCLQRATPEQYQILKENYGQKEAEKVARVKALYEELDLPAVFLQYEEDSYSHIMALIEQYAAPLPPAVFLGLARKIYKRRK

[7] = target: proteins of HEK293T cells transiently overexpressing caspase-6 (Homo sapiens, UniProt P50914); conditions: exp_ref Probe; protein RPL14 (P50914); analysis C6
[8] = target: proteins of HEK293T cells transiently overexpressing caspase-6 (Homo sapiens, UniProt P46779); conditions: exp_ref Probe; protein RPL28 (P46779); analysis C6
[9] = target: proteins of HEK293T cells transiently overexpressing caspase-6 (Homo sapiens, UniProt P25705); conditions: exp_ref Probe; protein ATP5A1 (P25705); analysis C6
[10] = target: T2, proteins of HEK293T cells transiently overexpressing caspase-6 (Homo sapiens, UniProt Q9NQC3); conditions: protein RTN4 (Q9NQC3), analysis C6
T2 sequence (Q9NQC3 1-1192): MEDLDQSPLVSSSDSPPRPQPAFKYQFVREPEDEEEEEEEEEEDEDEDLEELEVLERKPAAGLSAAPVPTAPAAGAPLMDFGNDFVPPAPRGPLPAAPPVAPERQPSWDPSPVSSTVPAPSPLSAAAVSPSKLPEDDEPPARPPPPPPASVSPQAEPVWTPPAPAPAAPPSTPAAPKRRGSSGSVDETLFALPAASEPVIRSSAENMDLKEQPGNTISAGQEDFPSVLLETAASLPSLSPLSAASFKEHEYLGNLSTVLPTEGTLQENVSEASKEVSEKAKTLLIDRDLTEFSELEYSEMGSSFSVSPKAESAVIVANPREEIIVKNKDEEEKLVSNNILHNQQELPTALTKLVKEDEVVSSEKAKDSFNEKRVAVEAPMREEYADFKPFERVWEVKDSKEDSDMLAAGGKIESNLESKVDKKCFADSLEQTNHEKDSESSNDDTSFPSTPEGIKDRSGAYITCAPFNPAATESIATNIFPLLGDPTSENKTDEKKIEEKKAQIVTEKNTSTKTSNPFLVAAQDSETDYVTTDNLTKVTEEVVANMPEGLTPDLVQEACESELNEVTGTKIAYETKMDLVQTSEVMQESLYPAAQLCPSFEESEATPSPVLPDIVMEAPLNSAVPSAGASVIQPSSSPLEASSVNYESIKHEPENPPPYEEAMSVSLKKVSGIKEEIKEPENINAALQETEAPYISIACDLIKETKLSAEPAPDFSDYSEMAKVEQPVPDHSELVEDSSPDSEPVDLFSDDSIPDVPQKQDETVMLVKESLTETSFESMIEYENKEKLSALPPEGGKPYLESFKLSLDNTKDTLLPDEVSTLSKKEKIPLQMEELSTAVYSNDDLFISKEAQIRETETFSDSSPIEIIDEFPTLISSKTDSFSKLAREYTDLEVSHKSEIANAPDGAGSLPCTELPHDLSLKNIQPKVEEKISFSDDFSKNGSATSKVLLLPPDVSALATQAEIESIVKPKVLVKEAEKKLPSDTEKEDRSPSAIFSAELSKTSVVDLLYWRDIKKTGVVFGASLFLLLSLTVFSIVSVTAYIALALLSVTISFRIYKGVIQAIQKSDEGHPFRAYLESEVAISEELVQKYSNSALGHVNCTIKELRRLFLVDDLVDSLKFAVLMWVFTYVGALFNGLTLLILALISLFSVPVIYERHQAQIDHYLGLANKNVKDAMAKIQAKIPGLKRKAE

[11] = target: proteins of HEK293T cells transiently overexpressing caspase-6 (Homo sapiens, UniProt P62263); conditions: exp_ref Probe; protein RPS14 (P62263); analysis C6
[12] = target: proteins of HEK293T cells transiently overexpressing caspase-6 (Homo sapiens, UniProt P35232); conditions: Probe; protein PHB P35232
[13] = target: proteins of HEK293T cells transiently overexpressing caspase-6 (Homo sapiens, UniProt Q9Y490); conditions: exp_ref Probe; protein TLN1 (Q9Y490); analysis C6
Sequence of proteins of HEK293T cells transiently overexpressing caspase-6 (Homo sapiens, UniProt Q9Y490) (Q9Y490 whole entry): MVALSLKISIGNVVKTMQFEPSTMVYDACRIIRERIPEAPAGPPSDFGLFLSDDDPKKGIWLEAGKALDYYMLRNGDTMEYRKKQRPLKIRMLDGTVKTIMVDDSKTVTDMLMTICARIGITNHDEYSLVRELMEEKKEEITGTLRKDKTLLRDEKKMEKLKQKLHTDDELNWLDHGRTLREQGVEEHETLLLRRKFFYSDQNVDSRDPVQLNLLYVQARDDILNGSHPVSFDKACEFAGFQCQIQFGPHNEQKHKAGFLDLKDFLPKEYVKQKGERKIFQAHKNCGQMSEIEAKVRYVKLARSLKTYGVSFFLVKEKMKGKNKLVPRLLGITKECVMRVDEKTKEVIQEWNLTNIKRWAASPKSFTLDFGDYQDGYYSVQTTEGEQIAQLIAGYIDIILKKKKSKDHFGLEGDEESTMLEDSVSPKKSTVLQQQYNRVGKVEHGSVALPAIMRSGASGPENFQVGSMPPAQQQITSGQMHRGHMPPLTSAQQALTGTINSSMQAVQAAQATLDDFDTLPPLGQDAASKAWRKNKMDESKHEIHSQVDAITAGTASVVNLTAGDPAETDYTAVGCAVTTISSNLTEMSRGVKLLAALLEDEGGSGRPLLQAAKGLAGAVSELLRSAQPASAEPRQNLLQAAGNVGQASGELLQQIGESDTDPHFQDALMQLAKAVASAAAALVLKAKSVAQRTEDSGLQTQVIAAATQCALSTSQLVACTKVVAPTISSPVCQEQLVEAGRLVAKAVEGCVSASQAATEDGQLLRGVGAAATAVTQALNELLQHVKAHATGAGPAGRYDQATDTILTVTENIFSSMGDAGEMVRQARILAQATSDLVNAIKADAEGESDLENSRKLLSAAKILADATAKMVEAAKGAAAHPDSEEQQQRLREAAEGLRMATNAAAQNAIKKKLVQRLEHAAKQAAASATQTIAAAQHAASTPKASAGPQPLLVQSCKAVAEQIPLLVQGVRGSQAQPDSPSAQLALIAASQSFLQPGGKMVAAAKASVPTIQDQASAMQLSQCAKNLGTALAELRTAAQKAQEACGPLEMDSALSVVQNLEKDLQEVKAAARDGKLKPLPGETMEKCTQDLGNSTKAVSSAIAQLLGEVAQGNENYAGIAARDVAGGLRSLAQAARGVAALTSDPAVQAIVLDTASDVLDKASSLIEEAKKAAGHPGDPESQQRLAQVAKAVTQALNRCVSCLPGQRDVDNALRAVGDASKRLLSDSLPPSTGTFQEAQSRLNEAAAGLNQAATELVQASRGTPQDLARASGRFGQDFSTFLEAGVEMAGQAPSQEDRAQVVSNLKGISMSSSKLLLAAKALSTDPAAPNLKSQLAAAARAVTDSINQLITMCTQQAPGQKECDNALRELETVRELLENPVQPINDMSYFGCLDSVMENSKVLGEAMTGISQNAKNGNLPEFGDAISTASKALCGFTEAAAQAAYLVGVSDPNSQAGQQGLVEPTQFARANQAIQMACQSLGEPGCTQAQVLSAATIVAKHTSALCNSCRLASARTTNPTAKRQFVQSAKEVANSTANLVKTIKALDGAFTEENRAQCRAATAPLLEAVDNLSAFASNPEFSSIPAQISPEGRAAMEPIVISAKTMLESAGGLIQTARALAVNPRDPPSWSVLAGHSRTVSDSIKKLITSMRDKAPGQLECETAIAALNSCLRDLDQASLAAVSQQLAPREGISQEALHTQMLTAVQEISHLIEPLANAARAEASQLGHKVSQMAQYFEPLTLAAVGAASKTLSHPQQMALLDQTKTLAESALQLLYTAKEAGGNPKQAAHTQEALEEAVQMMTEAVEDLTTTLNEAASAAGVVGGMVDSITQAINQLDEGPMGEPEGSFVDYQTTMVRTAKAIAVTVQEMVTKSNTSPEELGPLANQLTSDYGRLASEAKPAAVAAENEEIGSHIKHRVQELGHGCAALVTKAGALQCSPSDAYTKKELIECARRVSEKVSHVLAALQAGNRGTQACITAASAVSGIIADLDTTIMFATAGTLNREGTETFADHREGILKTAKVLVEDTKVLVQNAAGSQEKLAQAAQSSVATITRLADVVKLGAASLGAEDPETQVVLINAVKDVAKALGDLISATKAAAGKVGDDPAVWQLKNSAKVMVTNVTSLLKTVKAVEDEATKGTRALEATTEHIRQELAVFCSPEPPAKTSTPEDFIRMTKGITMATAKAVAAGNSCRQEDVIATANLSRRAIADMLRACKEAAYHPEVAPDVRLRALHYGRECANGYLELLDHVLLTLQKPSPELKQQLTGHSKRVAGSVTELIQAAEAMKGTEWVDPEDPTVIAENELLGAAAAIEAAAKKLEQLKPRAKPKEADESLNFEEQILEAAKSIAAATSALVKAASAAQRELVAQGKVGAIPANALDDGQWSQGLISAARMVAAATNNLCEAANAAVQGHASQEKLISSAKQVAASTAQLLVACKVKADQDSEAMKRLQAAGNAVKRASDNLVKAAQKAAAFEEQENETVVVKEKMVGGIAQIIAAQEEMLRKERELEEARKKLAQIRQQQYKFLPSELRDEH

Sequence of proteins of HEK293T cells transiently overexpressing caspase-6 (Homo sapiens, UniProt Q9UQE7) (Q9UQE7 whole entry): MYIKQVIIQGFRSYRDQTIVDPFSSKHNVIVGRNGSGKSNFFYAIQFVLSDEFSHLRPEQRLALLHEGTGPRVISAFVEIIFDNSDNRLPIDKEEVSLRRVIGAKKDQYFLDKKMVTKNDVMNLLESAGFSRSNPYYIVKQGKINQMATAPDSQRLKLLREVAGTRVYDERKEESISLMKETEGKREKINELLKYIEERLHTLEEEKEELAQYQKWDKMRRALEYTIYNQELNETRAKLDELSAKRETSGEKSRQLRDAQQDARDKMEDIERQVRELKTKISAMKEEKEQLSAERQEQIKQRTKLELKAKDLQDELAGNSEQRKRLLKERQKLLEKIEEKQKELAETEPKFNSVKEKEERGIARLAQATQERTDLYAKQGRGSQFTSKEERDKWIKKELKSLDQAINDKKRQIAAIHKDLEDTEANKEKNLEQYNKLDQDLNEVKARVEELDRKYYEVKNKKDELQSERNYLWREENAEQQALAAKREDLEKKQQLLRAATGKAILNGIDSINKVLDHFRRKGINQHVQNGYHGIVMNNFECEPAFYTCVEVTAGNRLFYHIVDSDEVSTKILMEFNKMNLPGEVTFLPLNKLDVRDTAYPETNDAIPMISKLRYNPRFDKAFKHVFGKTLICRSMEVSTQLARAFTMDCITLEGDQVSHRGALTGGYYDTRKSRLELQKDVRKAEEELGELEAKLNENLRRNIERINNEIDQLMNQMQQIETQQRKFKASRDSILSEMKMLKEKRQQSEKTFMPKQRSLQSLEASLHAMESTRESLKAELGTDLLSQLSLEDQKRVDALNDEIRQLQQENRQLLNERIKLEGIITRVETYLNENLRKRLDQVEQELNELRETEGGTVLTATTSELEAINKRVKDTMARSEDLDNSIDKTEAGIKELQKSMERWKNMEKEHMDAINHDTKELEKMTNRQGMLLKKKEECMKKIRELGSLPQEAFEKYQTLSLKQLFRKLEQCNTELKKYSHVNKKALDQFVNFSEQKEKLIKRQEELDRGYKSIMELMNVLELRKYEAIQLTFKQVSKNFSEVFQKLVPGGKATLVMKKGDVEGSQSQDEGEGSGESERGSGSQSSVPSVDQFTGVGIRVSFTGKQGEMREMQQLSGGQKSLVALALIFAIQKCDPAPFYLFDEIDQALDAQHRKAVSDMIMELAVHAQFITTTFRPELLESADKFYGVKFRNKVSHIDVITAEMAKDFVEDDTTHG
Sequence of proteins of HEK293T cells transiently overexpressing caspase-6 (Homo sapiens, UniProt Q9Y2X3) (Q9Y2X3 whole entry): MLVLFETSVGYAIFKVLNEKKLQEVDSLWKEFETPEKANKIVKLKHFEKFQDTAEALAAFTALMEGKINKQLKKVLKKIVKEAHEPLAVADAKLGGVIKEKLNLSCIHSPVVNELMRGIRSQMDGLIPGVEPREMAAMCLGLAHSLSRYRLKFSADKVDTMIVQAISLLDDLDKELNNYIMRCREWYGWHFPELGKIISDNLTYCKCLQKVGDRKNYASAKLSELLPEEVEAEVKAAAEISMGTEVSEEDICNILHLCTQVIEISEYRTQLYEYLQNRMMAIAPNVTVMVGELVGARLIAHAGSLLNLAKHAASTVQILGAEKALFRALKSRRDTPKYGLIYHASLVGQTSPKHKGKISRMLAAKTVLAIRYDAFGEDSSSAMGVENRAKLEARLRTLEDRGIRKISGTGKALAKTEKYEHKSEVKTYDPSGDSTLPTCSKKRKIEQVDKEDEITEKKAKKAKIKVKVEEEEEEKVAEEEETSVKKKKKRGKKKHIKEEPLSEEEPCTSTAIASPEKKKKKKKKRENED
Sequence of proteins of HEK293T cells transiently overexpressing caspase-6 (Homo sapiens, UniProt P35232) (P35232 whole entry): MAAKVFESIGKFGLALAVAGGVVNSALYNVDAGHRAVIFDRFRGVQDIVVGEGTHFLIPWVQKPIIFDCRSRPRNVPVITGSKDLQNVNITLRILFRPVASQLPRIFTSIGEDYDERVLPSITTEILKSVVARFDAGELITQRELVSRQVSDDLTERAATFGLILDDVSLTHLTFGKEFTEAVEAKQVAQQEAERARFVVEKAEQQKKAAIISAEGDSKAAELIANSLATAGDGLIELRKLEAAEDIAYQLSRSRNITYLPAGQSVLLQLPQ
Sequence of proteins of HEK293T cells transiently overexpressing caspase-6 (Homo sapiens, UniProt P25705) (P25705 44-553): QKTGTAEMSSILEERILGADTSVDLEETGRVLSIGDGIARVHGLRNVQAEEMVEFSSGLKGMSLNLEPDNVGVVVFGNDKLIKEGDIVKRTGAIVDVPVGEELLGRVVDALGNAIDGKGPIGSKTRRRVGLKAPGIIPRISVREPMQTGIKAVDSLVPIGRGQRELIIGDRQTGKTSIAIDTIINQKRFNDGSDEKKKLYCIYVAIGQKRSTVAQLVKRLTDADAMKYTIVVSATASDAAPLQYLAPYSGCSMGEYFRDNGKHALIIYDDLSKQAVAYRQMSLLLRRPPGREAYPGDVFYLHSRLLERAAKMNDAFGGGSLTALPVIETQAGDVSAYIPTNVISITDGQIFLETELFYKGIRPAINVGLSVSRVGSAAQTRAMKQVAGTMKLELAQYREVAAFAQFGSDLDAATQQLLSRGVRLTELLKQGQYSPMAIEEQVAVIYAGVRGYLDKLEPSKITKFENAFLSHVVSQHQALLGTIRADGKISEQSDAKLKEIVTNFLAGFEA

Compound `C#CCOc1ccc([C@@H]2C[C@@H](C(=O)Nc3ccc(OC(F)(F)F)cc3)CN(S(=O)(=O)C=C)C2)cc1` (relative stereo) [13-t] has an enrich.exp.med [1] of 0.6101, an enrich.exp.med [2] of 0.6428 and an enrich.exp.med [3] of -4.171. The enrich.exp.med.lin ([4]; Expt Probe) was 14.5893, the enrich.exp.med.log2 ([4]; Expt Probe) was 3.867 and the enrich.exp.med ([4]; exp_ref Probe) was 3.867. It also gave an enrich.exp.med [5] of 1.504, an enrich.exp.med [6] of -1.278 and an enrich.exp.med [7] of 0.5362. It also gave an enrich.exp.med [8] of -0.3003, an enrich.exp.med [9] of -0.052 and an enrich.exp.med.lin ([10]; Expt Probe) of 6.436. The enrich.exp.med.log2 ([10]; Expt Probe) was 2.686, the enrich.exp.med ([10]; exp_ref Probe) was 2.686 and the enrich.exp.med [11] was -0.03314. For the same compound, the enrich.exp.med [12] was -1.532 and the enrich.exp.med [13] was 0.6042.
